PubChem BioAssay (NCI)
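Step 1: Grow cells in 96-well plates. Step 2: Expose to compound for 48 hours at 5 concentrations. Step 3: Interpolate endpoints linearly; if unreached, use highest concentration. TGI: total growth inhibition.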

Tests used:
Assay in all cases: NCI-60 cell line screen, 48 h
MALME-3M melanoma = test system: MALME-3M melanoma
HS 578T breast = test system: HS 578T breast
UO-31 renal = test system: UO-31 renal
HCT-15 colon = test system: HCT-15 colon
MDA-N = test system: MDA-N
SF-295 CNS = test system: SF-295 CNS
K-562 leukemia = test system: K-562 leukemia
PC-3 prostate = test system: PC-3 prostate
LOX IMVI melanoma = test system: LOX IMVI melanoma
SK-MEL-5 melanoma = test system: SK-MEL-5 melanoma
HOP-62 NSCLC = test system: HOP-62 NSCLC

CCC[C@H](C)[C@H]1NC(=O)[C@@H](NC(=O)[C@@H](CC(C)C)N(C)C(=O)C2CCCN2C(=O)[C@H](C)O)[C@@H](C)OC(=O)[C@H](CC(C)C)N(C)C(=O)[C@@H]2CCCN2C(=O)[C@H](CC(C)C)NC(=O)[C@@H](C)C(=O)[C@H](C(C)C)OC(=O)C[C@@H]1O (stereo partly drawn)
TGI (MALME-3M melanoma): < 0.0025 µM | TGI (HS 578T breast): 1.04 µM | TGI (UO-31 renal): 0.128 µM | TGI (HCT-15 colon): 1.44 µM | TGI (MDA-N): 0.0205 µM | TGI (SF-295 CNS): 0.0536 µM | TGI (K-562 leukemia): 3.26 µM | TGI (PC-3 prostate): 0.0169 µM | TGI (LOX IMVI melanoma): 0.00309 µM | TGI (SK-MEL-5 melanoma): 0.00381 µM | TGI (HOP-62 NSCLC): 0.00842 µM

O=C1C(C=NCCc2c[nH]c3ccccc23)C(C(F)(F)F)=NN1c1nc2ccccc2s1 (stereo not drawn)
TGI (MALME-3M melanoma): > 100 µM | TGI (HS 578T breast): > 100 µM | TGI (UO-31 renal): > 100 µM | TGI (HCT-15 colon): > 100 µM | TGI (MDA-N): > 100 µM | TGI (SF-295 CNS): 66.5 µM | TGI (K-562 leukemia): > 100 µM | TGI (PC-3 prostate): 97.8 µM | TGI (LOX IMVI melanoma): 78.6 µM | TGI (SK-MEL-5 melanoma): 37.1 µM | TGI (HOP-62 NSCLC): 46.9 µM

Cc1cc(O)cc(O)c1N=Nc1ccc([N+](=O)[O-])cc1
TGI (MALME-3M melanoma): 87.7 µM | TGI (HS 578T breast): 73.7 µM | TGI (UO-31 renal): 83.8 µM | TGI (HCT-15 colon): 28.9 µM | TGI (MDA-N): 83.9 µM | TGI (SF-295 CNS): > 100 µM | TGI (K-562 leukemia): > 100 µM | TGI (PC-3 prostate): > 100 µM | TGI (LOX IMVI melanoma): 84.8 µM | TGI (SK-MEL-5 melanoma): 38.4 µM | TGI (HOP-62 NSCLC): > 100 µM

COC(c1ccc(C(C)(C)C)cc1)(c1ccc(C(C)(C)C)cc1)c1cc(C(O)(c2cc(C(OC)(c3ccc(C(C)(C)C)cc3)c3ccc(C(C)(C)C)cc3)c(C)cc2C)c2cc(C(OC)(c3ccc(C(C)(C)C)cc3)c3ccc(C(C)(C)C)cc3)c(C)cc2C)c(C)cc1C
TGI (MALME-3M melanoma): > 100 µM | TGI (HS 578T breast): > 100 µM | TGI (UO-31 renal): > 100 µM | TGI (HCT-15 colon): > 100 µM | TGI (MDA-N): > 100 µM | TGI (SF-295 CNS): > 100 µM | TGI (K-562 leukemia): > 100 µM | TGI (PC-3 prostate): > 100 µM | TGI (LOX IMVI melanoma): > 100 µM | TGI (SK-MEL-5 melanoma): > 100 µM | TGI (HOP-62 NSCLC): > 100 µM

O=C1N[C@@H]2c3c(csc3Br)C(=O)[C@@H]2O1
TGI (MALME-3M melanoma): > 100 µM | TGI (HS 578T breast): > 100 µM | TGI (UO-31 renal): 58.4 µM | TGI (HCT-15 colon): > 100 µM | TGI (MDA-N): 67.6 µM | TGI (SF-295 CNS): > 100 µM | TGI (K-562 leukemia): 53.4 µM | TGI (PC-3 prostate): > 100 µM | TGI (LOX IMVI melanoma): 41.3 µM | TGI (SK-MEL-5 melanoma): > 100 µM | TGI (HOP-62 NSCLC): > 100 µM

Cc1cc(C)c2c(n1)S(=O)(=O)N(CCCN1CCN(c3cccc(C(F)(F)F)c3)CC1)/C(=C(\O)c1ccc(Cl)cc1)C2=O
TGI (MALME-3M melanoma): 15.8 µM | TGI (HS 578T breast): 56.8 µM | TGI (UO-31 renal): 10.8 µM | TGI (HCT-15 colon): 13.9 µM | TGI (MDA-N): 15 µM | TGI (SF-295 CNS): 14.2 µM | TGI (K-562 leukemia): > 100 µM | TGI (PC-3 prostate): 13.6 µM | TGI (LOX IMVI melanoma): 17.6 µM | TGI (SK-MEL-5 melanoma): 6.22 µM | TGI (HOP-62 NSCLC): 37.1 µM

O=C1/C(=C/c2ccc([N+](=O)[O-])cc2)CNC/C1=C\c1ccc([N+](=O)[O-])cc1
TGI (MALME-3M melanoma): > 100 µM | TGI (HS 578T breast): > 64.9 µM | TGI (UO-31 renal): 19.6 µM | TGI (HCT-15 colon): 3.06 µM | TGI (MDA-N): 25.5 µM | TGI (SF-295 CNS): 34.1 µM | TGI (K-562 leukemia): 1.21 µM | TGI (PC-3 prostate): 21.7 µM | TGI (LOX IMVI melanoma): 5.93 µM | TGI (SK-MEL-5 melanoma): 25.3 µM | TGI (HOP-62 NSCLC): 15.9 µM

O=C(O[C@H](/C=C/c1ccccc1)P1(=O)N(Cc2ccccc2)[C@@H]2CCCC[C@H]2N1Cc1ccccc1)c1ccccc1
TGI (MALME-3M melanoma): 12 µM | TGI (HS 578T breast): > 100 µM | TGI (UO-31 renal): > 100 µM | TGI (HCT-15 colon): 11.1 µM | TGI (MDA-N): > 100 µM | TGI (SF-295 CNS): > 100 µM | TGI (K-562 leukemia): > 100 µM | TGI (PC-3 prostate): > 100 µM | TGI (LOX IMVI melanoma): 11.8 µM | TGI (SK-MEL-5 melanoma): 3.88 µM | TGI (HOP-62 NSCLC): > 100 µM

CCOC(=O)C1C(=O)CC(O)(c2ccccc2)C(C(=O)OCC)C1c1ccc(OC)cc1 (stereo not drawn)
TGI (MALME-3M melanoma): > 100 µM | TGI (HS 578T breast): 53.7 µM | TGI (UO-31 renal): > 100 µM | TGI (HCT-15 colon): > 100 µM | TGI (MDA-N): 16 µM | TGI (SF-295 CNS): 17.5 µM | TGI (K-562 leukemia): > 83.4 µM | TGI (PC-3 prostate): > 96.4 µM | TGI (LOX IMVI melanoma): > 64.7 µM | TGI (SK-MEL-5 melanoma): > 100 µM | TGI (HOP-62 NSCLC): > 100 µM

C/C(=N/NC(=S)Nc1cccc(C)c1)c1ccccn1
TGI (MALME-3M melanoma): 8 µM | TGI (HS 578T breast): 41.1 µM | TGI (UO-31 renal): 6 µM | TGI (HCT-15 colon): 2.24 µM | TGI (MDA-N): 3.61 µM | TGI (SF-295 CNS): 4.89 µM | TGI (K-562 leukemia): 1.64 µM | TGI (PC-3 prostate): 7.68 µM | TGI (LOX IMVI melanoma): 9.93 µM | TGI (SK-MEL-5 melanoma): 1.6 µM | TGI (HOP-62 NSCLC): 4.98 µM

O=C1C(Br)=Cc2c(Cl)sc(Cl)c21
TGI (MALME-3M melanoma): 29 µM | TGI (HS 578T breast): > 93.8 µM | TGI (UO-31 renal): 9.14 µM | TGI (HCT-15 colon): 18.6 µM | TGI (MDA-N): 8.7 µM | TGI (SF-295 CNS): > 66.4 µM | TGI (K-562 leukemia): 13.6 µM | TGI (PC-3 prostate): 6.83 µM | TGI (LOX IMVI melanoma): 5.84 µM | TGI (SK-MEL-5 melanoma): > 53.7 µM | TGI (HOP-62 NSCLC): 28.6 µM

CCOC(=O)C(=O)N1C(C)=C(C(=O)OCC)CC(C(=O)OCC)=C1C
TGI (MALME-3M melanoma): > 100 µM | TGI (HS 578T breast): > 100 µM | TGI (UO-31 renal): > 100 µM | TGI (HCT-15 colon): > 100 µM | TGI (MDA-N): > 100 µM | TGI (SF-295 CNS): > 100 µM | TGI (K-562 leukemia): > 100 µM | TGI (PC-3 prostate): > 100 µM | TGI (LOX IMVI melanoma): > 100 µM | TGI (SK-MEL-5 melanoma): > 100 µM | TGI (HOP-62 NSCLC): > 100 µM

O=C(O)CNC(=O)c1ccc([As](=O)(O)O)cc1
TGI (MALME-3M melanoma): > 100 µM | TGI (HS 578T breast): > 100 µM | TGI (UO-31 renal): > 100 µM | TGI (HCT-15 colon): > 100 µM | TGI (MDA-N): > 100 µM | TGI (SF-295 CNS): > 100 µM | TGI (K-562 leukemia): > 100 µM | TGI (PC-3 prostate): > 100 µM | TGI (LOX IMVI melanoma): > 100 µM | TGI (SK-MEL-5 melanoma): > 100 µM | TGI (HOP-62 NSCLC): > 100 µM
